# Measured values as given in patent US9518052B2, “Pyrazolopyridines and pyrazolopyrimidines” (Pfizer Inc., priority 2014, dated 2016).
# Where a name gives a salt, the structure may show the parent alone.
# Tests used:
# Format in all cases: biochemical
# Conditions in all cases: Caliper assay at 1 mM ATP
# [1] = target: JAK1 (Homo sapiens (Human), UniProt P23458); test: JAK Caliper Enzyme Assay at 1 mM ATP (JAK1)
# Method: (§1) JAK Caliper Enzyme Assay at 1 mM ATP
# (§2) Test article was solubilized in dimethyl sulfoxide (DMSO) to a stock concentration of 30 mM. An 11-point half log dilution series was created in DMSO with a top concentration of 600 μM. […] The compound plates were diluted 1 to 60 resulting in a top final assay compound concentration of 10 μM and a 2% DMSO concentration.
# (§3) Test article and assay controls were added to a 384-well plate. Reaction mixtures contained 20 mM HEPES, pH 7.4, 10 mM magnesium chloride, 0.01% bovine serum albumin (BSA), 0.0005% Tween 20, 1 mM ATP and 1 μM peptide substrate. […] Enzyme concentrations and incubation times were optimized for each new enzyme preps and were modified slightly over time to ensure 20%-30% phosphorylation. The assays were stopped with a final concentration of 10 mM EDTA, 0.1% Coating Reagent and 100 mM HEPES, pH=7.4. The assay plates were placed on a Caliper Life Science Lab Chip 3000 (LC3000) instrument, and each well was sampled using appropriate separation conditions to measure the unphosphorylated and phosphorylated peptide.
# [2] = target: JAK2 (Homo sapiens (Human), UniProt O60674); test: JAK Caliper Enzyme Assay at 1 mM ATP (JAK2)
# JAK2, sequence (O60674 whole entry, species assumed): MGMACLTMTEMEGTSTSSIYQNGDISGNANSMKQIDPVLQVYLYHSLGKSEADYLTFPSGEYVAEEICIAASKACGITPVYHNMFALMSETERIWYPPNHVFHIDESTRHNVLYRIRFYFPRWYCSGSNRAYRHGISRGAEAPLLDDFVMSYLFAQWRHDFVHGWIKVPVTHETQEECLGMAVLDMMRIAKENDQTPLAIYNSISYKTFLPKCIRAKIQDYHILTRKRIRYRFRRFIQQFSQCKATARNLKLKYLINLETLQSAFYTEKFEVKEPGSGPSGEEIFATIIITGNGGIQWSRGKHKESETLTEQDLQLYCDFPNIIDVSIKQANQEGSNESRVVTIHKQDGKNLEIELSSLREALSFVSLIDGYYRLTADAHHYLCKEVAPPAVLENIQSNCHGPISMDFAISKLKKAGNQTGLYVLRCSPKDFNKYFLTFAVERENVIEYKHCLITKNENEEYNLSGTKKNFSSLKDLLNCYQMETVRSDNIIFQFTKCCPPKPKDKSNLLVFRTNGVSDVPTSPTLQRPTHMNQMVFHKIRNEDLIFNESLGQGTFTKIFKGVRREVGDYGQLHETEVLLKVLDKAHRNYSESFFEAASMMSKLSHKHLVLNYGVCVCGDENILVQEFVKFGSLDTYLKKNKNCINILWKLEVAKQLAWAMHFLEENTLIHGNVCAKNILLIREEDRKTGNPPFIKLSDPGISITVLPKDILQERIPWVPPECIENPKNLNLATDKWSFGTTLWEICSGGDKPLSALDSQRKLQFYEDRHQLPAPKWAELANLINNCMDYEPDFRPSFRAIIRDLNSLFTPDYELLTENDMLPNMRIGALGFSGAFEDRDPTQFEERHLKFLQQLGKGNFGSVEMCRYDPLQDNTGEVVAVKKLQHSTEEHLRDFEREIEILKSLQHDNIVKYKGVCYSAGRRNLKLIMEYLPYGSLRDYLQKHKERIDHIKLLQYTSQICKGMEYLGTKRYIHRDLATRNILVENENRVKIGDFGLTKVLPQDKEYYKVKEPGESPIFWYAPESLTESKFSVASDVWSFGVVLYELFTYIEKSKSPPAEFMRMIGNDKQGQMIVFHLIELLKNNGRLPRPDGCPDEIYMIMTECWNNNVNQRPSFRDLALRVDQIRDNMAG
# Method: as §1, §2, §3
# [3] = target: JAK3 (Homo sapiens (Human), UniProt P52333); test: JAK Caliper Enzyme Assay at 1 mM ATP (JAK3)
# JAK3, sequence (P52333 whole entry, species assumed): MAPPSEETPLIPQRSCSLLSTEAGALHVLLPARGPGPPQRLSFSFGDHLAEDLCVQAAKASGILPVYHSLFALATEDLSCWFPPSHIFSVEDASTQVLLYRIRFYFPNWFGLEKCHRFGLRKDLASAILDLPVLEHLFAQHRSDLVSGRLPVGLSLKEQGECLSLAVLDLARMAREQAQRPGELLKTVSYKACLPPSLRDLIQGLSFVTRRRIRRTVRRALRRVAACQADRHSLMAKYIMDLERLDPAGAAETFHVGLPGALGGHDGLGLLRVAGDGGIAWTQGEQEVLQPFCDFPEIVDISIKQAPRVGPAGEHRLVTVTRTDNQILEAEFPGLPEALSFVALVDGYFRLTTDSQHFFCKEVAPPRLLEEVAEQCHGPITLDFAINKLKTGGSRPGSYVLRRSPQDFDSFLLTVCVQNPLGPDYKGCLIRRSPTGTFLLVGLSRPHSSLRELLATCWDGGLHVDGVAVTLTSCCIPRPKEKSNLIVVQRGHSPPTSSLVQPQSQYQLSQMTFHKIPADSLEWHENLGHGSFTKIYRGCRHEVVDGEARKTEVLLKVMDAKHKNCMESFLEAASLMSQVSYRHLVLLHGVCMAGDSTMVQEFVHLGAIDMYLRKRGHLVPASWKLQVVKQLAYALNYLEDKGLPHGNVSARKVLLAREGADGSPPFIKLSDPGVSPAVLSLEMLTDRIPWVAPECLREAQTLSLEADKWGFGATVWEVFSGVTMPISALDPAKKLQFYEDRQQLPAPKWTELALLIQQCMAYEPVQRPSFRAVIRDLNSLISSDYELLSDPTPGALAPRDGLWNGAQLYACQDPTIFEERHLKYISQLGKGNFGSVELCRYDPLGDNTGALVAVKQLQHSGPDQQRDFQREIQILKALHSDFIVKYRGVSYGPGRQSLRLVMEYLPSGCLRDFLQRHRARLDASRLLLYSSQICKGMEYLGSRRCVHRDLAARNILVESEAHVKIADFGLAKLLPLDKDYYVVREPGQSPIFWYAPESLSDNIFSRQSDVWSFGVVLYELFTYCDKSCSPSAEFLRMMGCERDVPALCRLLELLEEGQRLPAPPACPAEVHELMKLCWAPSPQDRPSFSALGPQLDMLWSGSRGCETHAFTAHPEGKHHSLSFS
# Method: as §1, §2, §3
# [4] = target: TYK2 (Homo sapiens (Human), UniProt P29597); test: JAK Caliper Enzyme Assay at 1 mM ATP (TYK2)
# TYK2, sequence (P29597 whole entry, species assumed): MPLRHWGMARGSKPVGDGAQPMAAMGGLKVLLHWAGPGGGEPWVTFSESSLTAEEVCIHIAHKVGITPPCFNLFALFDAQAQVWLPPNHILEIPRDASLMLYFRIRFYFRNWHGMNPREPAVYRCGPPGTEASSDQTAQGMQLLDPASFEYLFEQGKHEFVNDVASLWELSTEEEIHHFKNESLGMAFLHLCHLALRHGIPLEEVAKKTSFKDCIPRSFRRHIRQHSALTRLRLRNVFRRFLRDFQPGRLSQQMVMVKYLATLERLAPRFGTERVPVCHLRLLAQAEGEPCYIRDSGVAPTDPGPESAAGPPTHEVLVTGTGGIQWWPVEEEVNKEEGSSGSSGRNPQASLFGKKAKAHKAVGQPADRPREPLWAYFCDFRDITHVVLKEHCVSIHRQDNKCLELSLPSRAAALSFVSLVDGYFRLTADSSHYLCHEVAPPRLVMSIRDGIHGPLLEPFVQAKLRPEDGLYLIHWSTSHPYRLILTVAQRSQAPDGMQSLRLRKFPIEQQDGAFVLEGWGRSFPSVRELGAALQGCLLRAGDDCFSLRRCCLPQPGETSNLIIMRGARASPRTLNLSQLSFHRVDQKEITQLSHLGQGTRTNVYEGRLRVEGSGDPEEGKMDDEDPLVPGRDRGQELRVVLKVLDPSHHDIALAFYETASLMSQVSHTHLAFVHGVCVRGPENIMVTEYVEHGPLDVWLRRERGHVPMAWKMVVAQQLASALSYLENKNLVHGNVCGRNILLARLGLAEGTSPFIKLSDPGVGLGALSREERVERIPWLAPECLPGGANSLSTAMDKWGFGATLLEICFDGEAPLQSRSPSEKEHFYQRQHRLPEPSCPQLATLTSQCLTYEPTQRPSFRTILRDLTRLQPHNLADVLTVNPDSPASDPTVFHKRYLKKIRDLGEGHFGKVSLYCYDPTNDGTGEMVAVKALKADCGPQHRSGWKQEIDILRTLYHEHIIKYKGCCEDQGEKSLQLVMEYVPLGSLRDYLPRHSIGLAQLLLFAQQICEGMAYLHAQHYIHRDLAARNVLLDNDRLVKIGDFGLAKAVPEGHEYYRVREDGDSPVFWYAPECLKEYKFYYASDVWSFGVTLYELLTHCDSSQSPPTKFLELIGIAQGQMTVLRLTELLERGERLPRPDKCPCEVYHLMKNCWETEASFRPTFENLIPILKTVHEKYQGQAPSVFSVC
# Method: as §1, §2, §3
# JAK1, sequence (P23458 whole entry, species assumed): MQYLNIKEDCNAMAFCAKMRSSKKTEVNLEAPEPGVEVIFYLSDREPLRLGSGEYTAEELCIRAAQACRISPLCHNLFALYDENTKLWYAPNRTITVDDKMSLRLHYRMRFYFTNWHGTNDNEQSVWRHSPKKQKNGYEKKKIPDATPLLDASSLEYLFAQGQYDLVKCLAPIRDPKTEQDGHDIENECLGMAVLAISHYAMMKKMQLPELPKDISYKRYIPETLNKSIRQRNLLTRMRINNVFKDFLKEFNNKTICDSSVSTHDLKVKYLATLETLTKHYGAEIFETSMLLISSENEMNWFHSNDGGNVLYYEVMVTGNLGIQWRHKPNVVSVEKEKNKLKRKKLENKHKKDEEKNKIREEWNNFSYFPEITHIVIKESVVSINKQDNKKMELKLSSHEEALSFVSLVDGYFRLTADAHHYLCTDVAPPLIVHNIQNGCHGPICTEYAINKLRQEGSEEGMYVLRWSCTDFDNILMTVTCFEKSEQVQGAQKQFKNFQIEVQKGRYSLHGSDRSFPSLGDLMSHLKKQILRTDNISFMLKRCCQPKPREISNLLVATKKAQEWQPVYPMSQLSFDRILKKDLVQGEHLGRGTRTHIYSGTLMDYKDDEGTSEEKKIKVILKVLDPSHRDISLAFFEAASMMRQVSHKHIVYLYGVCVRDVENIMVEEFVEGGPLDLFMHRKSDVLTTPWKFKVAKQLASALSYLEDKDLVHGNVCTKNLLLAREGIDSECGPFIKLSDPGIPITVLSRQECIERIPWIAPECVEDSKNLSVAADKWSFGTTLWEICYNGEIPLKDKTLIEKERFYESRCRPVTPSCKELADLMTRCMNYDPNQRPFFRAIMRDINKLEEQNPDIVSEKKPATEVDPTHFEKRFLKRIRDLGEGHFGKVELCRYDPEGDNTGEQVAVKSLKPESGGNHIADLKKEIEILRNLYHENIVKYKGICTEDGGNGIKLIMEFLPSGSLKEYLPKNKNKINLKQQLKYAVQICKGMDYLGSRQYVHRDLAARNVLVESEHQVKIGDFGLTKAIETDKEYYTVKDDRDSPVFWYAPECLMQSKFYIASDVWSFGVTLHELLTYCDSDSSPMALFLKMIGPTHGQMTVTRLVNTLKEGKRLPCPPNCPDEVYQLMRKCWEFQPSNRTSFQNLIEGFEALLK
IC50 [1] [nM],IC50 [2] [nM],IC50 [3] [nM],IC50 [4] [nM],Molecule
8,38.1,177,36.5,"CCN(c1ccccc1CNc1nc(-c2cc(F)c(O)cc2CC(F)(F)F)cc2[nH]nc(C(=O)NC)c12)S(=O)(=O)CC [Example 1, 4-({2-[Ethyl(ethylsulfonyl)amino]benzyl}amino)-6-[5-fluoro-4-hydroxy-2-(2,2,2-trifluoroethyl)phenyl]-N-methyl-1H-pyrazolo[4,3-c]pyridine-3-carboxamide]"
3.4,17,84.5,12.1,"CCc1cc(O)c(F)cc1-c1cc2[nH]nc(C(=O)NC)c2c(NCc2ccccc2N(CC)S(=O)(=O)CC)n1 [Example 2, 4-({2-[ethyl(ethylsulfonyl)-amino]benzyl}amino)-6-(2-ethyl-5-fluoro-4-hydroxyphenyl)-N-methyl-1H-pyrazolo[4,3-c]pyridine-3-carboxamide]"
1.9,9.6,47.5,6.8,"CCc1cc(O)c(F)cc1-c1cc2[nH]nc(C(=O)NC)c2c(NCc2ccccc2N(C)S(=O)(=O)CC)n1 [Example 3, 6-(2-ethyl-5-fluoro-4-hydroxy-phenyl)-4-({2-[(ethylsulfonyl)-(methyl)amino]benzyl}amino)-N-methyl-1H-pyrazolo[4,3-c]pyridine-3-carboxamide]"
2.1,7.5,31.9,7,"CCc1cc(O)c(F)cc1-c1cc2[nH]nc(C(=O)NC)c2c(NCC(C)C)n1 [Example 5, 6-(2-ethyl-5-fluoro-4-hydroxyphenyl)-N-methyl-4-[(2-methylpropyl)amino]-1H-pyrazolo[4,3-c]pyridine-3-carboxamide]"
3.1,15.8,84.9,15.3,"CCc1cc(O)c(F)cc1-c1cc2[nH]nc(C(=O)NC)c2c(NCc2cc(Cl)ccc2N(C)S(C)(=O)=O)n1 [Example 6, 4-({5-chloro-2-[methyl(methyl-sulfonyl)amino]benzyl}amino)-6-(2-ethyl-5-fluoro-4-hydroxy-phenyl)-N-methyl-1H-pyrazolo[4,3-c]pyridine-3-carboxamide]"
1.7,9.2,49,6.5,"CCc1cc(O)c(F)cc1-c1cc2[nH]nc(C(=O)NC)c2c(NCc2cc(F)ccc2N(C)S(C)(=O)=O)n1 [Example 7, 6-(2-ethyl-5-fluoro-4-hydroxyphenyl)-4-({5-fluoro-2-[methyl(methyl-sulfonyl)amino]benzyl}amino)-N-methyl-1H-pyrazolo[4,3-c]pyridine-3-carboxamide]"
1.7,7.5,33.8,5.7,"CCc1cc(O)c(F)cc1-c1cc2[nH]nc(C(=O)NC)c2c(NCc2c(F)cccc2N(C)S(C)(=O)=O)n1 [Example 8, 6-(2-ethyl-5-fluoro-4-hydroxyphenyl)-4-({2-fluoro-6-[methyl(methyl-sulfonyl)amino]benzyl}amino)-N-methyl-1H-pyrazolo[4,3-c]pyridine-3-carboxamide]"
–,2.6,14.2,4.8,"N-ethyl-N-[2-({[6-(2-ethyl-5-fluoro-4-hydroxyphenyl)-1H-pyrazolo[4,3-c]pyridin-4-yl]amino}methyl)phenyl]ethanesulfonamide [Example 138]"

Molecule,IC50 [1] [nM],IC50 [2] [nM],IC50 [3] [nM],IC50 [4] [nM]
"CCc1cc(O)ccc1-c1cc2[nH]ncc2c(NCc2c(C)cccc2N(C)S(C)(=O)=O)n1 [Example 127, N-[2-({[6-(2-ethyl-4-hydroxyphenyl)-1H-pyrazolo[4,3-c]pyridin-4-yl]amino}methyl)-3-methylphenyl]-N-methylmethanesulfonamide diethylamine salt]",6,14.9,–,625
"CCc1cc(O)ccc1-c1cc2[nH]ncc2c(N2CCC(OC)CC2)n1 [Example 128, 3-ethyl-4-[4-(4-methoxypiperidin-1-yl)-1H-pyrazolo[4,3-c]pyridin-6-yl]phenol diethylamine salt]",3.6,12.6,–,514
